The source of these data is patent EP0345068B1, “Agonist of gamma-aminobutyric acid” (JOHN WYETH & BROTHER LIMITED, priority 1988, dated 1989).

The subject of experiment [1] is GABA autoreceptor. Nature of the experiment: Procedure 1: inhibition of potassium-evoked [3H]-GABA release from rat cerebral cortex slices. The following applies: for GABA autoreceptor pD2 values: inhibition of 25 mM potassium-evoked [3H]-GABA release, rat cortex slices in vitro. The experiment is classed as cell-based. The method, then: (§1) The following test procedures were used to measure activity at (a) GABA autoreceptors and GABAB receptors by inhibition of potassium-evoked GABA and noradrenalin release from rat cortex in vitro (Procedure 1); and (b) GABAA receptors by enhancement of [3H]-flunitrazepam binding in rat cortex in vitro (Procedure 2):
(§2) Slices (0.25 x 0.25 x 2.0 mm) of rat cerebral cortex are prepared using a McIlwain tissue chopper. The slices are incubated in Krebs-Henseleit solution containing [³H]-GABA (10⁻⁷M) and [¹⁴C]-noradrenaline (10⁻⁷M) in the presence of amino-oxyacetic acid (AOAA) (10⁻⁵M), pargyline (10⁻⁶M) and ascorbic acid (10⁻⁴M), for 20 minutes at 37°C, rinsed with 5 ml aliquots of Krebs-Henseleit solution and transferred to 10 superfusion chambers (volume 300»l). The slices are continuously superfused with Krebs-Henseleit solution (0.4 ml min⁻¹) containing AOAA (10⁻⁵M) and fractions of the superfusate collected every 4 minutes. Transmitter release is induced by 4 minute exposure to a Krebs-Henseleit solution containing 25 mM potassium (with concomitant reduction in sodium to maintain osmolarity) after 68 (S₁) and 92 (S₂) minutes of superfusion. The compound under study is added to the superfusing medium 20 minutes prior to the second potassium stimulation. The residual radioactivity in the slices at the end of the experiment together with that in the superfusate fractions is measured by liquid scintillation counting using a dual label programme for tritium and carbon-14. Calculations: The amount of radioactivity (either tritium or carbon-14) in each fraction is expressed as a percentage of the respective total radioactivity in the tissue at the start of the respective collection period. The amount of radioactivity released above basal by the increased potassium is calculated and the ratio S2/S1 obtained. The S2/S1 ratio from drug-treated slices is expressed as a percentage of the control S2/S1 ratio.

In another experiment the target is T1, GABAB receptors (Rattus norvegicus, UniProt Q9Z0U4).
T1 construct: Slices (0.25 x 0.25 x 2.0 mm) of rat cerebral cortex; from tissue; host or cells: rat cerebral cortex slices
Nature of the experiment: Procedure 1: inhibition of potassium-evoked [14C]-noradrenaline release from rat cerebral cortex slices. It counts as cell-based. The following applies: for inhibition at 10 µM: 10^-5M, potassium-evoked noradrenaline release, rat cortex slices, failure to inhibit indicates no GABAB agonist activity. The method, then:
as §1
as §2, with “ratio. For compounds achieving inhibition of 30% or more pD₂ values are calculated from plots of inhibition of release versus concentration of drug.” for “ratio.”

The test system of another experiment is GABAA receptors. In words: Procedure 2: enhancement of [3H]-flunitrazepam binding in rat cortex membranes. The following applies: for Enhancement of [3H]-flunitrazepam binding: 20nM [3H]-flunitrazepam, rat cortex membranes, 30 minutes at 37°C. Here is the method:
as §1
Cortices from six or more rats are excised and homogenised in 50 volumes (volume/weight) 50mM Tris buffer (pH 7.4 at 37°C) using a Polytron homogeniser on speed 5 for 30 seconds. Tissue is kept at O°C throughout the procedure. The homogenate is centrifuged at 40,000 x g for 15 minutes and the pellet resuspended (Polytron 5, 10 sec.) in 50 volumes (original weight) of Tris buffer. Centrifugation and resuspension is repeated followed by incubation at 37°C for 10 minutes. The homogenate is centrifuged (40,000 x g, 15 min), resuspended in 10 volumes (original weight) Tris and stored below -20°C for more than 24 hours.
On the day of the experiment, membranes are thawed at 37°C and made up to 20 volumes (original weight) with Tris Krebs (20mM, see below). The membranes are homogenised (Polytron 5, 30 sec), incubated at 37°C for 15 minutes and centrifuged at 20,000 x g for 10 minutes. This wash and resuspension is repeated two more times with the final pellet resuspended in 100 volumes (original weight) Tris Krebs ready for use.
The test compound (50»l) and 20nM (final concentration) [³H]-flunitrazepam (50»l) are dispensed in triplicate. The reaction is started by the addition of 900»l of membrane preparation. After a 30 minute incubation at 37°C the reaction is stopped by filtration through Whatman GF/B filters under reduced pressure using a Brandell Cell Harvester, with two 7.5 ml filter washings. The radioactivity retained on the filters is measured by liquid scintillation counting. Tris Krebs composition: NaCl-136mM, KCl-5mM, MgSO₄-2mM, KH₂PO₄-2mM, CaCl₂-2mM, Tris buffer (pH 7.4 at 37°C)-20mM, ascorbic acid-lmM, disodium ethylenediamine tetraacetic acid-lmM.
Calculations: Results are calculated as follows: [formula]

In experiment [2] the test system is GABA autoreceptor. Nature of the experiment: Procedure 3: effect on a GABA synapse in vivo, caudate-evoked synaptic inhibition of nigral neurones, iontophoretic ejection. More on the design: species or system rat. Particulars: anaesthetized male albino rats; ejected iontophoretically in the vicinity of nigral neurones; action reversible. Here is the method: The compounds were also tested for their effect on a GABA synapse in vivo in the following procedure:
(§3) Experiments were performed on male albino rats (240-280g) lightly anaesthetized with urethane (1.2-1.4 g/kg i.p.) or Halothane (0.7-1.0% in 0₂). The animal's temperature was maintained between 36-38°C via a thermostatically controlled heating blanket.
(§4) The caudate nucleus and substantia nigra were approached dorsally after exposing the overlying cortex. Pulsations of the brain and cerebral oedema were minimised by allowing cerebral spinal fluid to leak from a cisternal puncture. The exposed cortex was bathed in warm liquid paraffin throughout the experiment. A coaxial bipolar stimulating electrode (tip separation 0.25mm) was positioned stereotaxically in the caudate nucleus such that the tip of the electrode corresponded to the area delineated by the co-ordinates L 2.5; A 8.5-95; D 5. (Paxinos and Watson 1986). […]
(§5) Extracellular recordings were obtained from single neurones in the ipsilateral substantia nigra via either the centre barrel (3.5M NaCl) of a multibarrelled microelectrode or a single barrelled electrode (3.5M NaCl), attached to but protruding 10-20 » beyond, a multibarrelled electrode. […] Effects of agonist drugs on the GABA autoreceptor could be measured as an attenuation of the synaptic inhibition evoked by stimulation of the caudate. […]

In experiment [3] the test system is postsynaptic GABAA receptors. In words: Procedure 3: drug ejected onto nigral neurones in vivo, test of postsynaptic GABAA receptor effect. More on the design: species or system rat. The following applies: anaesthetized male albino rats; ejected iontophoretically in the vicinity of nigral neurones. The method, then: as §3, §4, §5

SMILES strings stand for the structures.

T1 sequence (Q9Z0U4 20-960): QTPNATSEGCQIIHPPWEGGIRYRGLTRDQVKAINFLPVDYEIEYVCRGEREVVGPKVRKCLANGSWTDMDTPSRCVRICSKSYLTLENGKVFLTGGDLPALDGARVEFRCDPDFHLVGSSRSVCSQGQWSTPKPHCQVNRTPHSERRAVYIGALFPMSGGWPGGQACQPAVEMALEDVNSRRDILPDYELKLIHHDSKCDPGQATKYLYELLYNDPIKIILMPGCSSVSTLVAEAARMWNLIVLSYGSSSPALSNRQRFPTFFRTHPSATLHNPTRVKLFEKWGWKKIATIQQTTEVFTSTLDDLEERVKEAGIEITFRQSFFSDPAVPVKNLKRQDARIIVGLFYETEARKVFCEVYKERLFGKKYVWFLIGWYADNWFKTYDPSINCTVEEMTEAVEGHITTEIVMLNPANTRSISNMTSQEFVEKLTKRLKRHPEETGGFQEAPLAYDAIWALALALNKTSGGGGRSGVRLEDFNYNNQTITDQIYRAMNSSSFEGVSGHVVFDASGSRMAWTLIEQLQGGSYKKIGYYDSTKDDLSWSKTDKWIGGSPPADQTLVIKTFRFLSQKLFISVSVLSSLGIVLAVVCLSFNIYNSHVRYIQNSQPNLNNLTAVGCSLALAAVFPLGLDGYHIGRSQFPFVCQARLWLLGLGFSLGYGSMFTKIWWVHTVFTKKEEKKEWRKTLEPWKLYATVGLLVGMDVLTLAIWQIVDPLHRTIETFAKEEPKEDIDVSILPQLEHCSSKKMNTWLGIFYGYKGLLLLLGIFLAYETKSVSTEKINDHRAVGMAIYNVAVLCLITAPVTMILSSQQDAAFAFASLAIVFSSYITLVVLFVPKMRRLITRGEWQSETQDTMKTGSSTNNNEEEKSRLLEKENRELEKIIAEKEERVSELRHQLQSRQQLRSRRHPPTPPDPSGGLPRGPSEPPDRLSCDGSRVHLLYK
T1 sequence (O88871 41-940 partner): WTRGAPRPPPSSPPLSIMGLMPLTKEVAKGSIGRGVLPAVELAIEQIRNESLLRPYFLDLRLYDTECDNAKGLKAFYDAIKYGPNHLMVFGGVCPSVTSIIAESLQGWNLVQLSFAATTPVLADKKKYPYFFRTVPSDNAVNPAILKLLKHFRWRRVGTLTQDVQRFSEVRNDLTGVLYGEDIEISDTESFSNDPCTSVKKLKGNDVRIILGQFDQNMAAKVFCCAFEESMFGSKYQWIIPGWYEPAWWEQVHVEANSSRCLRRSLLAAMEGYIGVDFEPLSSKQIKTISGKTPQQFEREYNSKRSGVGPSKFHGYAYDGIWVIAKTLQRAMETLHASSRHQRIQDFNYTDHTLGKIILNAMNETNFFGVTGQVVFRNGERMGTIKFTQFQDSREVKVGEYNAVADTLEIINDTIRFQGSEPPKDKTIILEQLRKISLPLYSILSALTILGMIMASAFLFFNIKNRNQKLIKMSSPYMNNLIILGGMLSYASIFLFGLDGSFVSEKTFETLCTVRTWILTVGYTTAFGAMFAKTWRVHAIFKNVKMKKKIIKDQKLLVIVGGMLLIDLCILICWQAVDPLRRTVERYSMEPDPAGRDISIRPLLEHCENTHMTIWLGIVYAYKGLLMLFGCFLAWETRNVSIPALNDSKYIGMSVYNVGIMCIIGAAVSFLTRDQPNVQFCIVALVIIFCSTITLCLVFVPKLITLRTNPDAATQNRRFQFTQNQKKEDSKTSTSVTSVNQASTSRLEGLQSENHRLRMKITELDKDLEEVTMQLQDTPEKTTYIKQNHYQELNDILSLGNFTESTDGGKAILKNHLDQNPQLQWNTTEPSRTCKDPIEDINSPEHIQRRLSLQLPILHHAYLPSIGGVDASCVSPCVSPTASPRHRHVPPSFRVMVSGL

Take `O=C(O)CCCN(Cc1ccc(Cl)cc1)Cc1ccc(Cl)cc1` [Example 2, 4-[N,N-Bis-(4-Chlorobenzyl)amino]butyric acid]: in the experiment with GABA autoreceptor [1], the “GABA autoreceptor pD2 values” worked out at 7.0. At GABAB receptors, at 10 µM the inhibition was 0%. For the same compound, in the experiment on GABAA receptors, the “Enhancement of [3H]-flunitrazepam binding” value (from here on “Enhancement”) is 0.
In the same order, the values of `NC(=O)CCCN(Cc1ccc(Cl)cc1)Cc1ccc(Cl)cc1` [Example 3, 4-[N,N-Bis-(4-chlorobenzyl)amino]butyramide] are 6.6, 0% and 0.
For `NC(=O)CCCN(Cc1ccccc1)Cc1ccccc1` [Example 4, 4-(N,N-Dibenzylamino)butyramide], in that order: 7.0, greater than 20% and 0.
On to `O=C(O)CCCN(Cc1ccccc1)Cc1ccccc1` [Example 5, 4-(N,N-Dibenzylamino)butyric acid], for which the “GABA autoreceptor pD2 values” with GABA autoreceptor [1] stood at 7.1. For the same compound, the inhibition at 10 µM at GABAB receptors came to 20%. In the experiment on GABAA receptors, the “Enhancement” value came to 0. In addition, in the experiment with GABA autoreceptor [2], the “synaptically-evoked, GABA-mediated inhibition in the substantia nigra” value was “almost abolished”. Further, the “effect on postsynaptic GABAA receptors” value in experiment [3] is “without affecting”.
In the case of `Cc1ccc(CN(CCCC(=O)O)Cc2ccc(C)cc2)cc1` [Example 8, 4-[N,N-Bis-(4-methylbenzyl)amino]butyric acid], the “GABA autoreceptor pD2 values” with GABA autoreceptor [1] was 7.4. Moreover, 10 µM produced 10% inhibition on GABAB receptors. Further, in the experiment with GABAA receptors, the “Enhancement” value is 0.
In the same order, the values of `O=C(O)CCCN(Cc1ccc(Cl)c(Cl)c1)Cc1ccc(Cl)c(Cl)c1` [Example 10, 4-[N,N-Bis-(3,4-dichlorobenzyl)amino]butyric acid] are 7.5, 0% and 0.
For `COc1ccc(CN(CCCC(N)=O)Cc2ccc(OC)cc2)cc1` [Example 12, 4-[N,N-Bis-(4-Methoxybenzyl)amino]butyramide], in that order: 6.0, 0% and 0.
For the compound `CN(CCCC(N)=O)Cc1ccc(Cl)cc1` [Example 24, 4-[(N-(p-Chlorobenzyl)-N-methyl)amino]butyramide], in the experiment with GABA autoreceptor [1], the “GABA autoreceptor pD2 values” is reported as 7.5. The compound also had an inhibition at 10 µM at GABAB receptors of 0%. The “Enhancement” value with GABAA receptors is recorded as 0.
As to `NC(=O)CCC/N=C(\c1ccc(Cl)cc1)c1cc(F)ccc1O` [Progabide, reference compound], the “activity at the GABA autoreceptor” value with GABA autoreceptor [1] (in vitro) was “active”.
For `CCCC/N=C(/c1cc(Cl)ccc1O)c1ccccc1Cl` [fengabine, reference compound], in the experiment with GABA autoreceptor [1], the “GABA autoreceptor pD2 values” came to 8.0. In addition, at GABAB receptors (in vitro), the “activity at GABAB sites in vitro” value is “little or no activity”. Besides, the “activity at GABAA sites in vitro” value in the experiment with GABAA receptors (in vitro) was “little or no activity”.

One may read the inhibition as the relative decrease from the control value, in per cent. Low values mean a weak effect, high ones a strong effect.
